PMC10218498, “Exploring BenzylethoxyAryl Urea Scaffolds for Multitarget Immunomodulation Therapies” (International Journal of Molecular Sciences, 2023)
Like-named read-outs stand apart in the source and are kept apart here.

Tests used:
PD-L1 = PD-L1 (Homo sapiens, UniProt Q9NZQ7); experiment: PD-L1 relative quantification by flow cytometry in MCF-7; assay type: cell-based; design: endogenous in cells; host or cells: MCF-7; conditions: MCF-7, 20 µM, 24 h; for % PD-L1 Memb. / % PD-L1 Total: control = 100
PD-L1, sequence (Q9NZQ7 19-290): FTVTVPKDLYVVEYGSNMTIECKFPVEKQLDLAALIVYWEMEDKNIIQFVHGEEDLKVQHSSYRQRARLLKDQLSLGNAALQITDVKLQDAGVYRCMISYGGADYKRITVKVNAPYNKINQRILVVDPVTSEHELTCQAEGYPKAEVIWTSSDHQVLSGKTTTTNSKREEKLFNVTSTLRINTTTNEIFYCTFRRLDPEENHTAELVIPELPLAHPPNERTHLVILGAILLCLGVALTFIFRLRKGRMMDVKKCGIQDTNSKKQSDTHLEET
Description: In view of the good results obtained for these selected compounds, we decided to extend the study to a third cancer cell line, MCF-7 (Human breast cancer adenocarcinoma). First, we determined the IC50 values of the derivatives and their SI indexes (see Table 4). Then, we determined the effect of the selected compounds on the biological targets, PD-L1 and VEGFR-2, by flow cytometry. […] As usually, the assay was performed at a concentration of 20 µM for 24 h.
(§1) To study the effect of the compounds on every biological target in cancer cell lines, the compounds were used at 20 µM dose.
(§2) For the assay, 10^5 cells per well were incubated for 24 h with the corresponding dose of the tested compound in a total volume of 500 μL of their growth media.
On the one hand, to detect total PD-L1 and VEGFR-2, after the cell treatments, they were collected and fixed with 4% in PBS paraformaldehyde. After fixation, a treatment with 0.5% in PBS TritonTM X-100 was performed, and finally, cells were stained with FITC Mouse monoclonal Anti-Human VEGFR-2 (ab184903) and Alexa Fluor® 647 Rabbit monoclonal Anti-PD-L1 (ab215251).
(§3) On the other hand, to detect membrane PD-L1 and VEGFR-2, the process was the same, avoiding the treatment with 0.5% in PBS TritonTM X-100 step.

[1] = test system: HT-29 (colon adenocarcinoma); experiment: MTT cell proliferation assay, HT-29; assay type: cell-based, human; conditions: for IC50: Homo sapiens, read-out: IC50 HT-29; for SI (HT-29) (IC50HEK293/IC50HT-29): selectivity index
Description: (§4) The 3-(4,5-dimethylthiazol-2-yl)-2,5-diphenyltetrazolium bromide (MTT; Sigma Chemical Co.) dye reduction assay in 96-well microplates was used. […] After that, the supernatant was discarded and replaced by 100 µL of DMSO to dissolve formazan crystals. The absorbance was then read at 550 nm by spectrophotometry. For all concentrations of compound, cell viability was expressed as the percentage of the ratio between the mean absorbance of treated cells and the mean absorbance of untreated cells. Three independent experiments were performed, and the IC50 values (i.e., concentration half inhibiting cell proliferation) were graphically determined using GraphPad Prism 4 software.

VEGFR-2 [2] = biological target: T1, VEGFR-2 (Homo sapiens, UniProt P35968); experiment: VEGFR-2 relative quantification by flow cytometry in MCF-7; assay type: cell-based; design: Both membrane and total PD-L1 and VEGFR-2 were relatively determined using DMSO-treated cells as a negative control; endogenous in cells; host or cells: MCF-7; conditions: MCF-7, 20 µM, 24 h, control = 100
T1 sequence (P35968 20-1356): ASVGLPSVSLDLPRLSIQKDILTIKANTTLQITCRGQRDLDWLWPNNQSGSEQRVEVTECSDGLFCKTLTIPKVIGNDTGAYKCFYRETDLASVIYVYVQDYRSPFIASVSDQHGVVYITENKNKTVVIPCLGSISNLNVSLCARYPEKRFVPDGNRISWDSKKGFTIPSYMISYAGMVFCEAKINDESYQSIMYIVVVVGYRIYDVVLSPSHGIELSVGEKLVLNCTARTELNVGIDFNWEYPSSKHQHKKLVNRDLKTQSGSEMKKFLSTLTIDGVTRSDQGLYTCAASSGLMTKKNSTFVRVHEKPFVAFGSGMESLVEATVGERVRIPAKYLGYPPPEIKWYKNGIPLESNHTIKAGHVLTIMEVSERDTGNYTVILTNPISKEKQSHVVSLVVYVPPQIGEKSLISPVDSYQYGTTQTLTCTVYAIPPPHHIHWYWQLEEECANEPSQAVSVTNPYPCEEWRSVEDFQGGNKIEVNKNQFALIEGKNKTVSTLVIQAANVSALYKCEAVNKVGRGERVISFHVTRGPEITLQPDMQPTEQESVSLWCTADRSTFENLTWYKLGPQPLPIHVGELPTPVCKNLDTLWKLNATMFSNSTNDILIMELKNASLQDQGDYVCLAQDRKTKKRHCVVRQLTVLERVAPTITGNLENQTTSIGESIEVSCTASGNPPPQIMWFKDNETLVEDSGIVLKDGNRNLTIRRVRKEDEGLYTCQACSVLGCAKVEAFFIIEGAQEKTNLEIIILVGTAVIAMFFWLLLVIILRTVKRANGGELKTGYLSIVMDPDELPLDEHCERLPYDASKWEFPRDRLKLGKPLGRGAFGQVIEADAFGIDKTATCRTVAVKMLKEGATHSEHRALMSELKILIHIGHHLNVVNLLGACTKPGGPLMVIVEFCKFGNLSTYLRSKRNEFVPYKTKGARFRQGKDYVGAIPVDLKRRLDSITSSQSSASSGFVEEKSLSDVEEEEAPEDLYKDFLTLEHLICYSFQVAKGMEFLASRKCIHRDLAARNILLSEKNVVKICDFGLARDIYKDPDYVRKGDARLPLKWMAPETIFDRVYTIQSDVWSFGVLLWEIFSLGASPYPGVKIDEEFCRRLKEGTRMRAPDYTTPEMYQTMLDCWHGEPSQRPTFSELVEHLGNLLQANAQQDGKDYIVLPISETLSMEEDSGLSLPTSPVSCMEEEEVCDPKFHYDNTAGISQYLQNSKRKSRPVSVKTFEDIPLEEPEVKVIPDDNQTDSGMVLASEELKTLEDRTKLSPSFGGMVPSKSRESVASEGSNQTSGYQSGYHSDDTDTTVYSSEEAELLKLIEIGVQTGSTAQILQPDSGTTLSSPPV
Description: Then, we determined the effect of the selected compounds on the biological targets, PD-L1 and VEGFR-2, by flow cytometry. […] As usually, the assay was performed at a concentration of 20 µM for 24 h.
as §1, §2
(§5) On the one hand, to detect total PD-L1 and VEGFR-2, after the cell treatments, they were collected and fixed with 4% in PBS paraformaldehyde.
as §3

[3] = test system: MCF-7 (Human breast cancer adenocarcinoma); experiment: MTT cell proliferation assay, MCF-7; assay type: cell-based; conditions: for IC50: Homo sapiens; for SI (MCF-7): selectivity index vs HEK-293
Description: as §4

VEGFR-2 [4] = biological target: T1, VEGFR-2; experiment: VEGFR-2 relative quantification by flow cytometry in HT-29; assay type: cell-based; design: Both membrane and total PD-L1 and VEGFR-2 were relatively determined using DMSO-treated cells as a negative control; endogenous in cells; host or cells: HT-29; conditions: 24 h; for Total VEGFR-2 (%): relative to DMSO control = 100; for inhibition at 20 µM: HT-29, HT-29, 20 µM, read-out: inhibition rate of VEGFR-2
Description: For these assays, cells were incubated for 24 h in the presence of the corresponding compounds at 20 µM concentration.
as §1, §2, §5, §3

[5] = test system: A-549 (pulmonary adenocarcinoma); experiment: MTT cell proliferation assay, A-549; assay type: cell-based, human; conditions: for IC50: Homo sapiens, read-out: IC50 A-549; for SI (A-549) (IC50HEK293/A-549): selectivity index
Description: as §4

LCK = experiment: Immunoblotting of OT-1 CTL signaling proteins: LCK; assay type: cell-based, mice; conditions: OT-1, 20 μM, 24 h
Description: We next studied the effect of our compounds on the signaling cascade downstream of the TCR. […] However, both the expression and phosphorylation of LCK were increased in response to all compounds. The effects on ZAP70 and LAT were more complex, with opposing effects on total protein expression versus phosphorylation. Thus, all compounds modulated signaling downstream of the TCR in a manner that is likely to impact T-cell activation and activity.
CD8+ cells were obtained from the inguinal, axillary, brachial, and mesenteric lymph nodes previously collected from OT-1 mice. Lymph node cells were isolated by mashing through a […] cell strainer. Cells were resuspended in IMDM cell media at a concentration of 0.3 million cells/mL. N4 ovalbumin peptide was added at a concentration of 10 nM, and cells were incubated for 48 h at 5% CO2, 37 °C. On day 2 from recollection, cells were pelleted at 1300 rpm for 5 min and washed with PBS to remove N4 peptide. The cell pellet was resuspended in fresh IMDM media in a new flask in a 0.3 million cells/mL and supplemented with IL-2 at 20 ng/mL. After incubation for a further 48 h (day 4), cells were re-seeded in fresh IMDM media at a concentration of 0.3 million cells/mL supplemented with IL-2 at 20 ng/mL. Cells were cultured for a further 48 h prior to use on day 6 in functional assays.
To study the effect of the compounds in the signaling pathway of CTLs, the compound was incubated for 24 h at 20 μM. After this time, cells were collected and washed twice in PBS and lysed in radioimmunoprecipitation assay (RIPA) lysis buffer (50 mM tris-HCl at pH 7.4, 150 mM sodium chloride, 5 mM EGTA, 0.1% SDS, 1% NP-40, and 1% deoxycholate) supplemented with a protease and phosphatase inhibitor cocktail (mini complete ULTRA Protease tablet and phosSTOP tablet from Roche, Basel, Switzerland). Lysates were clarified by high-speed centrifugation (17,000 rpm for 15 min at 4 °C). Protein concentration was measured using a Micro BCA Protein Assay (Thermo Scientific, Waltham, MA, USA), and 10 μg to 30 μg of total protein were supplemented with 2X SDS sample buffer [tris (pH 6.8), 20% glycerol, 5% SDS, b-mercaptoethanol, and bromophenol blue) and boiled at 95 °C for 5 min. […] Bound Ab was detected by incubation with anti-rabbit and anti-mouse horseradish peroxidase secondary Ab (Cell Signaling Technology) and visualized using the Bio-Rad ChemiDoc MP Imaging System.

[6] = MCF7, MTT, read-out: IC50 (μM) MCF-7

Structure (SMILES)	% PD-L1 Memb. (PD-L1) [%]	% PD-L1 Total (PD-L1) [%]	IC50 ([1]; HT-29, MTT, 48 h of treatment) [µM]	% VEGFR-2 Memb. (VEGFR-2 [2]) [%]	% VEGFR-2 Total (VEGFR-2 [2]) [%]	IC50 [3, 6] [µM]	Total VEGFR-2 (%) (VEGFR-2 [4]; HT-29, 20 µM)	IC50 ([5]; A549, MTT, 48 h of treatment) [µM]	inhibition at 20 µM (VEGFR-2 [4]) [%]	inhibition at 20 µM (PD-L1; MCF7, read-out: inhibition rate for total PD-L1) [%]	inhibition rate of VEGFR-2 (VEGFR-2 [4]; HT-29, 20 µM)	SI (HT-29) (IC50HEK293/IC50HT-29) [1]	SI (MCF-7) [3]	SI (A-549) (IC50HEK293/A-549) [5]	LCK protein expression (Western blot quantification) (LCK)	pY394-LCK protein expression (Western blot quantification) (LCK)	pY505-LCK protein expression (Western blot quantification) (LCK)	IC50 ([1]; HT-29, 48 h) [µM]	IC50 ([3]; MCF7, read-out: IC50 (μM) MCF-7) [µM]	IC50 ([5]; A549, 48 h) [µM]
COc1ccc(COc2cccc(NC(=O)Nc3ccc(F)cc3)c2)cc1 [Compound 2]	81 ± 10	62 ± 15	5.5 ± 1.2	91 ± 12	72 ± 10	0.17 ± 0.03	62 ± 15	3.4 ± 0.8	~50			>18	>580	>29	176	143	140			
COc1ccc(COc2cccc(NC(=O)Oc3ccccc3)c2)cc1 [Compound 14]	81 ± 8	85 ± 15		89 ± 11	110 ± 12		43 ± 12		~60			>15	>5	>27	175	130	145	6.8 ± 0.5	20 ± 9	3.7 ± 0.5

Continued, in another order:

% PD-L1 Memb. (PD-L1) [%]	% PD-L1 Total (PD-L1) [%]	IC50 ([1]; HT-29, MTT, 48 h of treatment) [µM]	% VEGFR-2 Memb. (VEGFR-2 [2]) [%]	% VEGFR-2 Total (VEGFR-2 [2]) [%]	IC50 [3, 6] [µM]	Total VEGFR-2 (%) (VEGFR-2 [4]; HT-29, 20 µM)	IC50 ([5]; A549, MTT, 48 h of treatment) [µM]	inhibition at 20 µM (VEGFR-2 [4]) [%]	inhibition at 20 µM (PD-L1; MCF7, read-out: inhibition rate for total PD-L1) [%]	inhibition rate of VEGFR-2 (VEGFR-2 [4]; HT-29, 20 µM)	Structure (SMILES)	SI (HT-29) (IC50HEK293/IC50HT-29) [1]	SI (MCF-7) [3]	SI (A-549) (IC50HEK293/A-549) [5]	LCK protein expression (Western blot quantification) (LCK)	pY394-LCK protein expression (Western blot quantification) (LCK)	pY505-LCK protein expression (Western blot quantification) (LCK)	IC50 ([1]; HT-29, 48 h) [µM]	IC50 ([3]; MCF7, read-out: IC50 (μM) MCF-7) [µM]	IC50 ([5]; A549, 48 h) [µM]
88 ± 11	197	19 ± 2	107 ± 4	93	20 ± 3	86 ± 21	6 ± 1				Cc1c(COc2ccc(CN3CCCCC3C(=O)O)cc2Br)cccc1-c1ccccc1 (centres unmarked) [BMS-8, reference compound]	3	3	10						
94 ± 12	87 ± 23	11 ± 1	82 ± 6	88 ± 11	1.3 ± 0.4	46 ± 18	1.6 ± 0.8	~60			COc1ccc(COc2cccc(NC(=O)Nc3ccc(Br)cc3)c2)cc1 [Compound 8]	>9	>77	>62						
100 ± 7	57 ± 15	2 ± 1.2	81 ± 11	83 ± 21	> 200	168 ± 12	12 ± 1		~40	no inhibitory effect	COc1ccc(COc2cccc(NC(=O)Nc3ccc(OC)cc3)c2)cc1 [Compound 11]	>50		>9	168	184	157			
